Experimental findings from patent US7338964B2, “2-substituted-1-deaza purine derivatives with adenosine receptor modulating activity” (Solvay Pharmaceuticals, B.V., priority 2004, dated 2008) are described below.

Broadly, the melting point is the temperature, or range, at which the solid turns liquid.

For data set [1], the target named is T1, human adenosine-A1 receptors (Homo sapiens, UniProt P30542).
T1 construct: expressed in transfected cells; host or cells: CHO cells
T1 sequence (P30542 1-326): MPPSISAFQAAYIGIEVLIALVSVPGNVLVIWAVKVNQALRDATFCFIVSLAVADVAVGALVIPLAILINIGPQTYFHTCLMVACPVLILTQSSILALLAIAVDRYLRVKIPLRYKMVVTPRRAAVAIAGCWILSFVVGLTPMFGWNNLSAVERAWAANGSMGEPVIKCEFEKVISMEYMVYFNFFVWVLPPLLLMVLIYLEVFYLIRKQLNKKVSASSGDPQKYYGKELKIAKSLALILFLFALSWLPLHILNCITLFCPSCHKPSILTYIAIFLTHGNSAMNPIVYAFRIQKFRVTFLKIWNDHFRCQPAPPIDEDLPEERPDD
Nature of the data set: In vitro affinity for human adenosine-A1 receptors, [3H]DPCPX radioligand binding. The conditions noted are these: human recombinant receptors expressed in CHO cells, read-out: Adenosine receptor affinity A1 pKi (converted). As to the method:
Affinity of the compounds for human adenosine-A1 receptors was determined using the receptor binding assay described by A. Townsend-Nicholson and P. R. Schofield (Biol. Chem., 269, 2373, 1994), using human recombinant receptors expressed in CHO cells, and [^3H]DPCPX as radioligand.

Data set [2] has as its target T2, human adenosine-A2A receptors (Homo sapiens, UniProt P29274).
T2 construct: expressed in transfected cells; host or cells: HEK-293 cells
Nature of the data set: In vitro affinity for human adenosine-A2A receptors, [3H]CGS 21680 radioligand binding. The conditions noted are these: human recombinant receptors expressed in HEK-293 cells, read-out: Adenosine receptor affinity A2A pKi (converted). The method, then:
Affinity of the compounds for human adenosine-A2A receptors was determined using the receptor binding assay described by D. R. Luthin et al. (Mol. Pharmacol., 47, 307, 1995), using human recombinant receptors expressed in HEK-293 cells, and [^3H]CGS 21680 as radioligand.

The target in data set [3] is T3, human adenosine-A3 receptor (Homo sapiens, UniProt P0DMS8).
T3 construct: expressed in transfected cells; membrane preparations
T3 sequence (P0DMS8 1-318): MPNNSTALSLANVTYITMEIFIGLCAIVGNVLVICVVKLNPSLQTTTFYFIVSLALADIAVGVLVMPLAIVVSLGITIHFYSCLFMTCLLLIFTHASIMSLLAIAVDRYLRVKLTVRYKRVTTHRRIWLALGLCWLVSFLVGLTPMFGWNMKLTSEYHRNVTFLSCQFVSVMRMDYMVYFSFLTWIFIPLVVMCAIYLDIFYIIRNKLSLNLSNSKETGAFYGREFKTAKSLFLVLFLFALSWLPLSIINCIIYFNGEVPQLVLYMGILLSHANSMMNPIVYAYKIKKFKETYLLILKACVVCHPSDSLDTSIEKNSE
Nature of the data set: In vitro affinity for human adenosine-A3 receptors, [125I]-AB-MECA radioligand binding. As to conditions: human recombinant (HEK 293) cell membranes, read-out: Adenosine receptor affinity A3 pKi (converted). As to the method: Affinity of the compounds for human adenosine-A3 receptors was determined using the receptor binding assay described by C. A. Salvatore et al.: “Molecular cloning and characterization of the human A3 adenosine receptor”, Proc. Natl. Acad. Sci. USA, 90, 10365-10369, 1993. Briefly, membrane preparations were obtained from human recombinant (HEK 293) cells in which the human adenosine-A3 receptor was stably expressed. Membranes were incubated at 22° C. for 90 minutes with [^125I]-AB-MECA in the absence or presence of test compounds in a concentration range from 10 μM down to 0.1 nM, diluted in a suitable buffer. Separation of bound radioactivity from free was done by filtration through Packard GF/B glass fiber filters with several washings with ice-cold buffer using a Packard cell harvester. Bound radioactivity was measured with a scintillation counter (Topcount, Packard) using a liquid scintillation cocktail (Microscint 0, Packard). Measured radioactivity was plotted against the concentration of the displacing test compound and displacement curves were calculated by four-parameter logistic regression, resulting in IC50 values, i.e. that concentration of displacing compound by which 50% of the radioligand is displaced. […]

T2 sequence (P29274 whole entry): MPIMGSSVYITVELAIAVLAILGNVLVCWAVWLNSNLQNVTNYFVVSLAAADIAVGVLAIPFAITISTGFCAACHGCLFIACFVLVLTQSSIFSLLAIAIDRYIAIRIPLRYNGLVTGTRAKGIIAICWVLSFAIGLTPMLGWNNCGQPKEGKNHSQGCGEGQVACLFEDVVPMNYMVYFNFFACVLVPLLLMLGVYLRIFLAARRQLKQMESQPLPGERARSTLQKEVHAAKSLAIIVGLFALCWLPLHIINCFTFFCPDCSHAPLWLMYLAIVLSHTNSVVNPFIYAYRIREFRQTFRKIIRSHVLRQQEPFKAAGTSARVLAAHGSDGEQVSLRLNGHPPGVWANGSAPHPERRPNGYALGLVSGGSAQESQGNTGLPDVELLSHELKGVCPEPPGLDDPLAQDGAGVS

As to `Cn1cnc2c(N)cc(NN=CCc3ccccc3)nc21` [Compound 3, 2-(2-phenylethyl-hydrazone)-6-amino-9-methyl-1-deazapurine], the melting point was determined as 182.1 °C. Besides, the Ki in data set [1] was 2510 nM. Moreover, in data set [2], the Ki was 3160 nM.
`Cn1cnc2c(N)cc(N3OC4C=CC3CC4)nc21` (stereo not drawn) [Compound 1, 2-(2-oxa-3-azabicyclo[2.2.2]oct-5-en-3-yl)-6-amino-9-methyl-1-deazapurine]: the melting point worked out at 169.9 °C. In data set [2], the Ki was 15800 nM.
For the compound `Cn1cnc2c(N)cc(N[C@H]3CC[C@@H](O)CC3)nc21` [Compound 2, 2-(cis-4-hydroxycyclohexylamino)-6-amino-9-methyl-1-deazapurine], the Ki in data set [2] was 7940 nM.
In the case of `Cn1cnc2c(N)cc(NN=CC3CCCCC3)nc21` [Compound 8, 2-(cyclohexylmethyl-hydrazone)-6-amino-9-methyl-1-deaza-purine], the Ki is 3160 nM in data set [1] and 2000 nM in data set [2].
On the same counts, the results for `COc1ccc(C=NNc2cc(N)c3ncn(C)c3n2)c(OC)c1` [Compound 6, 2-(2,4-dimethoxy-2-benzylhydrazon)-6-amino-9-methyl-1-deazapurine] are 6310 nM and 2000 nM.
With `COc1ccc(C=NNc2cc(N)c3ncn(C)c3n2)cc1` [Compound 5, 2-(4-methoxy-2-benzylhydrazon)-6-amino-9-methyl-1-deazapurine], the Ki in data set [2] was 1000 nM.
Turning to `Cn1cnc2c(N)cc(NN=Cc3ccccc3)nc21` [Compound 4, 2-benzylhydrazone-6-amino-9-methyl-1-deazapurine], the melting point fell in the range of 231.7 to 232.8 °C. Moreover, the Ki in data set [1] is 3980 nM. In addition, the Ki in data set [2] was 1260 nM. For the same compound, the Ki in data set [3] was 2510 nM.
